In US20050096395A1, “Methods of treating attention deficit/hyperactivity disorder (adhd)” (priority 2002, published 2005):

What was measured:
[1] = tested on: patients with AD/HD and comorbid tic disorder; assay: randomized, double-blind, placebo-controlled trial in patients with AD/HD and comorbid tic disorder; format: in vivo, human; conditions: patients 7-15 years; 1.5-2 mg/kg/day; after 8 weeks of treatment
Excerpt: This study is a randomized, double-blind, placebo-controlled trial of parallel groups. […] Before entry into the study, each patient undergoes a detailed clinical evaluation by a psychiatrist and/or a psychologist. The diagnosis of AD/HD and comorbid tic disorder is made on the basis of this interview. Entry criteria includes age between 7 and 15 years, a DSM-IV diagnosis of AD/HD (any type), a DSM-IV tic disorder (any type), and a score of ≧1.5 standard deviation units for age and gender on the 10-item Conners hyperactivity index (Goyette et al., 1978, J. Abnorm. Child Psychol., 6: 221-236) rated by a teacher or parent. Exclusion criteria includes evidence of major depression, generalized anxiety disorder, separation anxiety disorder, or psychotic symptoms. Children with moderate or more severe tic symptoms (Yale Global Tic Severity Scale [[…] et al., 1989, J Am Acad Child Adolesc Psychiatry, 28: 566-573] total tic score of>22) or significant obsessive-compulsive symptoms (Children's Yale Brown Obsessive Compulsive Scale [[…] et al., 1997, J Am Acad Child Adolesc Psychiatry, 36: 844-852] total score>15) are also excluded. Before entry into the study the patients are tapered off their current medication. The participants in the study are randomly divided into two groups-milnacipran group and placebo control group. Each group consists of 5 patients. […] The patients in the placebo group are administered a placebo for 8 weeks. The patient's course is followed at visits with a primary clinician, who is blind to the patient's study group, every 2 weeks. The AD/HD rating scale, Clinical Global Impression global improvement score, and Yale Global Tic Severity Scale are used to follow the outcome measures. […] Each symptom was scored by the child's teacher from 0 to 3 (0=never [or rarely], 1=sometimes, 2=often, and 3=very often). […] A score of much improved or very much improved, reflecting meaningful improvement in AD/HD symptoms both at school and at home, is counted as a positive response. […]

NMDA receptor = conditions: cited from earlier work
norepinephrine reuptake = conditions: cited from earlier work
[2] = tested on: spontaneously hypertensive rats (SHR); assay: delayed gratification response paradigm in animal model of AD/HD; format: in vivo, rat; conditions: 5, 10, 25 or 50 mg/kg over twenty-one days
Experimental: In this study, spontaneously hypertensive rats (SHR) are used as an animal model for AD/HD. The SHR animal model is described in Russell et al., 2000, Behavioral Brain Research, 117: 69-74; Russell, 2001, Metab. Brain Dis., 16: 143-149; and Sagvolden et al., 1992, Behav. Neural Biol., 58: 103-112. The study consists of two groups of rats: normal and SHR. Each group is further divided into two subgroups: placebo and milnacipran. […] The milnacipran is administered to the rats over a period of twenty-one days. The rats are from the normal and SHR groups are trained in the delayed gratification response paradigm as described in […] et al., 1996, Pharmacology and Biochemistry and Behavior, 54: 149-157. In this paradigm, rats learn to choose between five food pellets delivered after 30 seconds and one food pellet delivered after 5 seconds. Normal rats learn to choose the five food pellets delivered after 30 seconds at a higher frequency.

[3] = tested on: rats described in McGrath et al., 2000; assay: animal model of tic disorder (McGrath et al., 2000); format: in vivo, rat; conditions: 5, 10, 25 or 50 mg/kg over twenty-one days, before vs after administration
Experimental: The rats are divided into two groups: placebo and milnacipran. […] The milnacipran is administered to the rats over a period of twenty-one days.

CCN(CC)C(=O)[C@]1(c2ccccc2)C[C@@H]1CN (racemic) [milnacipran, cis-(±)-2-(aminomethyl)-N,N-diethyl-1-phenyl-yclopropanecarboxamide]
AD/HD Rating Scale [1]: improvement | Clinical Global Improvement Scale [1]: improvement | Yale Global Tic Severity Scale [1]: improvement | IC50 (NMDA receptor): ~6.3 µM | IC50 (norepinephrine reuptake): […] | time required by SHR rats to choose five food pellets delivered after 30 seconds at a higher frequency [2]: reduced, approaching the amount of time required by the normal rats | abnormal behavior such as climbing/leaping, gnawing, and other tic-like behaviors [3]: reduces the abnormal behavior
